Patent publication US12559529B2, “NPY2 receptor agonists” (Boehringer Ingelheim International GmbH, priority 2019, dated 2026)

target: T1, Human Neuropeptide Y2 Receptor (Homo sapiens, UniProt P49146); experiment: Radioligand binding competition assay (RLB); conditions: Table 3; human 125I-PYY (1-36) 0.02 nM, Y2 receptor membranes; read-out: Ki
T1 construct: purchased CHEMICON HTS066M
T1 sequence (P49146 1-381): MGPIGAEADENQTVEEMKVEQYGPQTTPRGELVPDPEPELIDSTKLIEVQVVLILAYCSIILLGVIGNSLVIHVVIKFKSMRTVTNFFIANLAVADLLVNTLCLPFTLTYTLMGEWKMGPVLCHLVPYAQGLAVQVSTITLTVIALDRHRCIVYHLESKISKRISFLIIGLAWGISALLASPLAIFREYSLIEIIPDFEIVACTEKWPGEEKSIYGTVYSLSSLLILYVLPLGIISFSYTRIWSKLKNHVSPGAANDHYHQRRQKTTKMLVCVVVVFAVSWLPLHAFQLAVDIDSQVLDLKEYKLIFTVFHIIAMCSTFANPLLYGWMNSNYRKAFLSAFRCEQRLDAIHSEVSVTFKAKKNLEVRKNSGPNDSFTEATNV
Summary of the method: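 Filtration format; Y2R membrane prep 0.5 μg/well; buffer 50 mM HEPES/5 mM MgCl2/1 mM CaCl2/0.2% ovalbumin pH 7.4; 2 h RT, shaking. Harvest on PEI-soaked GF/C, ice-cold HEPES/500 mM NaCl washes, scintillation count. IC50 by nonlinear fit.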

Row | Structure (SMILES) | Ki [nM]
1 | CC(C)CC(=O)N[C@@H](C)C(=O)N1CCC[C@H]1C(=O)N[C@@H](CCC(=O)O)C(=O)N[C@@H](CCCCNC(=O)COCCOCCNC(=O)COCCOCCNC(=O)CC[C@H](NC(=O)CCCCCCCCCCCCCCCCC(=O)O)C(=O)O)C(=O)N1CCC[C@H]1C(=O)N[C@@H](CCC(=O)O)C(=O)N[C@@H](CCC(=O)O)C(=O)N[C@@H](CCC(=O)O)C(=O)N[C@@H](C)C(=O)N[C@@H](CO)C(=O)N1CCC[C@H]1C(=O)N[C@@H](CCC(=O)O)C(=O)N[C@@H](CCC(=O)O)C(=O)N[C@@H](CC(C)C)C(=O)N[C@@H](CCC(N)=O)C(=O)N[C@@H](CCCNC(=N)N)C(=O)N[C@@H](Cc1ccc(O)cc1)C(=O)N[C@@H](Cc1ccc(O)cc1)C(=O)N[C@H](C(=O)N[C@H](C(=O)N[C@@H](CC(C)C)C(=O)N[C@@H](CCCNC(=N)N)C(=O)N[C@@H](Cc1c[nH]cn1)C(=O)N[C@@H](Cc1ccc(O)cc1)C(=O)N[C@@H](Cc1ccc(O)cc1)C(=O)N[C@@H](CC(N)=O)C(=O)N[C@@H](Cc1c[nH]c2ccccc12)C(=O)N[C@@H](CC(C)C)C(=O)N[C@H](C(=O)N[C@@H](CCCNC(=N)N)C(=O)N[C@@H](CCC(N)=O)C(=O)N[C@@H](CCCNC(=N)N)C(=O)N[C@@H](Cc1ccc(O)cc1)C(N)=O)[C@@H](C)O)[C@@H](C)O)C(C)C [Compound 119, N{alpha-4}-(3-methylbutanoyl)-N{epsilon-7}-[2-(2-{2-[2-(2-{2-[(4S)-4-carboxy-4-(17-carboxyheptadecanamido)butanamido]ethoxy}ethoxy)acetamido]ethoxy}ethoxy)acetamido]-[4A,7K,9E,11E,18Q,22V,23T,28Y,30W,31L]hPYY (4-36)] | 3.32
2 | CC(C)CC(=O)N[C@@H](C)C(=O)N1CCC[C@H]1C(=O)N[C@@H](C)C(=O)N[C@@H](CCCCNC(=O)COCCOCCNC(=O)COCCOCCNC(=O)CC[C@H](NC(=O)CCCCCCCCCCCCCCCCC(=O)O)C(=O)O)C(=O)N1CCC[C@H]1C(=O)N[C@@H](CCC(=O)O)C(=O)N[C@@H](C)C(=O)N[C@@H](CC(=O)O)C(=O)N[C@@H](C)C(=O)N[C@@H](CO)C(=O)N1CCC[C@H]1C(=O)N[C@@H](CCC(=O)O)C(=O)N[C@@H](CCC(=O)O)C(=O)N[C@@H](CC(C)C)C(=O)N[C@@H](CCC(N)=O)C(=O)N[C@@H](CCCNC(=N)N)C(=O)N[C@@H](Cc1ccc(O)cc1)C(=O)N[C@@H](Cc1ccc(O)cc1)C(=O)N[C@H](C(=O)N[C@@H](CO)C(=O)N[C@@H](CC(C)C)C(=O)N[C@@H](CCCNC(=N)N)C(=O)N[C@@H](Cc1c[nH]cn1)C(=O)N[C@@H](Cc1ccc(O)cc1)C(=O)N[C@@H](Cc1ccc(O)cc1)C(=O)N[C@@H](CC(N)=O)C(=O)N[C@@H](Cc1c[nH]c2ccccc12)C(=O)N[C@@H](CC(C)C)C(=O)N[C@H](C(=O)N[C@@H](CCCNC(=N)N)C(=O)N[C@@H](CCC(N)=O)C(=O)N[C@@H](CCCNC(=N)N)C(=O)N[C@@H](Cc1ccc(O)cc1)C(N)=O)[C@@H](C)O)C(C)C [Compound 121, N{alpha-4}-(3-methylbutanoyl)-N{epsilon-7}-[2-(2-{2-[2-(2-{2-[(4S)-4-carboxy-4-(17-carboxyheptadecanamido)butanamido]ethoxy}ethoxy)acetamido]ethoxy}ethoxy)acetamido]-[4A,6A,7K,9E,10A,18Q,22V,28Y,30W,31L]hPYY (4-36)] | 0.61
3 | CC(C)CC(=O)N[C@@H](C)C(=O)N1CCC[C@H]1C(=O)N[C@@H](CCC(=O)O)C(=O)N[C@@H](CCCCNC(=O)COCCOCCNC(=O)COCCOCCNC(=O)CC[C@H](NC(=O)CCCCCCCCCCCCCCCCC(=O)O)C(=O)O)C(=O)N1CCC[C@H]1C(=O)N[C@@H](CCC(=O)O)C(=O)N[C@@H](CCC(=O)O)C(=O)N[C@@H](CC(=O)O)C(=O)N[C@@H](C)C(=O)N[C@@H](C)C(=O)N1CCC[C@H]1C(=O)N[C@@H](CCC(=O)O)C(=O)N[C@@H](CCC(=O)O)C(=O)N[C@@H](CC(C)C)C(=O)N[C@@H](CCC(N)=O)C(=O)N[C@@H](CCCNC(=N)N)C(=O)N[C@@H](Cc1ccc(O)cc1)C(=O)N[C@@H](Cc1ccc(O)cc1)C(=O)N[C@H](C(=O)N[C@@H](CO)C(=O)N[C@@H](CC(C)C)C(=O)N[C@@H](CCCNC(=N)N)C(=O)N[C@@H](Cc1c[nH]cn1)C(=O)N[C@@H](Cc1ccc(O)cc1)C(=O)N[C@@H](Cc1ccc(O)cc1)C(=O)N[C@@H](CC(N)=O)C(=O)N[C@@H](Cc1c[nH]c2ccccc12)C(=O)N[C@@H](CC(C)C)C(=O)N[C@H](C(=O)N[C@@H](CCCNC(=N)N)C(=O)N[C@@H](CCC(N)=O)C(=O)N[C@@H](CCCNC(=N)N)C(=O)N[C@@H](Cc1ccc(O)cc1)C(N)=O)[C@@H](C)O)C(C)C [Compound 122, N{alpha-4}-(3-methylbutanoyl)-N{epsilon-7}-[2-(2-{2-[2-(2-{2-[(4S)-4-carboxy-4-(17-carboxyheptadecanamido)butanamido]ethoxy}ethoxy)acetamido]ethoxy}ethoxy)acetamido]-[4A,7K,9E,13A,18Q,22V,28Y,30W,31L]hPYY (4-36)] | 1.84

Next, values leading:

Row | Ki [nM] | Structure (SMILES)
4 | 1.18 | CC(C)CC(=O)N[C@@H](C)C(=O)N1CCC[C@H]1C(=O)N[C@@H](C)C(=O)N[C@@H](CCCCNC(=O)COCCOCCNC(=O)COCCOCCNC(=O)CC[C@H](NC(=O)CCCCCCCCCCCCCCCCC(=O)O)C(=O)O)C(=O)N1CCC[C@H]1C(=O)N[C@@H](CCC(=O)O)C(=O)N[C@@H](CCC(=O)O)C(=O)N[C@@H](CC(=O)O)C(=O)N[C@@H](CO)C(=O)N[C@@H](CO)C(=O)N1CCC[C@H]1C(=O)N[C@@H](CCC(=O)O)C(=O)N[C@@H](CCC(=O)O)C(=O)N[C@@H](CC(C)C)C(=O)N[C@@H](CCC(N)=O)C(=O)N[C@@H](CCCNC(=N)N)C(=O)N[C@@H](Cc1ccc(O)cc1)C(=O)N[C@@H](Cc1ccc(O)cc1)C(=O)N[C@H](C(=O)N[C@@H](CO)C(=O)N[C@@H](CC(C)C)C(=O)N[C@@H](CCCNC(=N)N)C(=O)N[C@@H](Cc1c[nH]cn1)C(=O)N[C@@H](Cc1ccc(O)cc1)C(=O)N[C@@H](Cc1ccc(O)cc1)C(=O)N[C@@H](CC(N)=O)C(=O)N[C@@H](Cc1c[nH]c2ccccc12)C(=O)N[C@@H](CC(C)C)C(=O)N[C@H](C(=O)N[C@@H](CCCNC(=N)N)C(=O)N[C@@H](CCC(N)=O)C(=O)N[C@@H](CCCNC(=N)N)C(=O)N[C@@H](Cc1ccc(O)cc1)C(N)=O)[C@@H](C)O)C(C)C [Compound 126, N{alpha-4}-(3-methylbutanoyl)-N{epsilon-7}-[2-(2-{2-[2-(2-{2-[(4S)-4-carboxy-4-(17-carboxyheptadecanamido)butanamido]ethoxy}ethoxy)acetamido]ethoxy}ethoxy)acetamido]-[4A,6A,7K,9E,12S,18Q,22V,28Y,30W,31L]hPYY (4-36)]
5 | 11.1 | CC(C)CC(=O)N[C@@H](C)C(=O)N1CCC[C@H]1C(=O)N[C@@H](CCC(=O)O)C(=O)N[C@@H](CCCCNC(=O)COCCOCCNC(=O)COCCOCCNC(=O)CC[C@H](NC(=O)CCCCCCCCCCCCCCCCC(=O)O)C(=O)O)C(=O)N1CCC[C@H]1C(=O)N[C@@H](CCC(=O)O)C(=O)N[C@@H](CCC(=O)O)C(=O)N[C@@H](CC(=O)O)C(=O)N[C@H](C(=O)N[C@@H](CO)C(=O)N[C@@H](C)C(=O)N[C@@H](CCC(=O)O)C(=O)N[C@@H](CCC(=O)O)C(=O)N[C@@H](CC(C)C)C(=O)N[C@@H](CCC(N)=O)C(=O)N[C@@H](CCCNC(=N)N)C(=O)N[C@@H](Cc1ccc(O)cc1)C(=O)N[C@@H](Cc1ccc(O)cc1)C(=O)N[C@H](C(=O)N[C@@H](CO)C(=O)N[C@@H](CC(C)C)C(=O)N[C@@H](CCCNC(=N)N)C(=O)N[C@@H](Cc1c[nH]cn1)C(=O)N[C@@H](Cc1ccc(O)cc1)C(=O)N[C@@H](Cc1ccc(O)cc1)C(=O)N[C@@H](CC(N)=O)C(=O)N[C@@H](Cc1c[nH]c2ccccc12)C(=O)N[C@@H](CC(C)C)C(=O)N[C@H](C(=O)N[C@@H](CCCNC(=N)N)C(=O)N[C@@H](CCC(N)=O)C(=O)N[C@@H](CCCNC(=N)N)C(=O)N[C@@H](Cc1ccc(O)cc1)C(N)=O)[C@@H](C)O)C(C)C)[C@@H](C)O [Compound 130, N{alpha-4}-(3-methylbutanoyl)-N{epsilon-7}-[2-(2-{2-[2-(2-{2-[(4S)-4-carboxy-4-(17-carboxyheptadecanamido)butanamido]ethoxy}ethoxy)acetamido]ethoxy}ethoxy)acetamido]-[4A,7K,9E,12T,14A, 18Q,22V,28Y,30W,31L]hPYY (4-36)]
6 | 8.54 | CC(C)CC(=O)N[C@@H](C)C(=O)N1CCC[C@H]1C(=O)N[C@@H](CCC(=O)O)C(=O)N[C@@H](CCCCNC(=O)COCCOCCNC(=O)COCCOCCNC(=O)CC[C@H](NC(=O)CCCCCCCCCCCCCCCCC(=O)O)C(=O)O)C(=O)N[C@@H](C)C(=O)N[C@@H](CCC(=O)O)C(=O)N[C@@H](CCC(=O)O)C(=O)N[C@@H](CC(=O)O)C(=O)N[C@@H](C)C(=O)N[C@@H](CO)C(=O)N1CCC[C@H]1C(=O)N[C@@H](CCC(=O)O)C(=O)N[C@@H](CCC(=O)O)C(=O)N[C@@H](CC(C)C)C(=O)N[C@@H](CCC(N)=O)C(=O)N[C@@H](CCCNC(=N)N)C(=O)N[C@@H](Cc1ccc(O)cc1)C(=O)N[C@@H](Cc1ccc(O)cc1)C(=O)N[C@H](C(=O)N[C@@H](CCC(=O)O)C(=O)N[C@@H](CC(C)C)C(=O)N[C@@H](CCCNC(=N)N)C(=O)N[C@@H](Cc1c[nH]cn1)C(=O)N[C@@H](Cc1ccc(O)cc1)C(=O)N[C@@H](Cc1ccc(O)cc1)C(=O)N[C@@H](CC(N)=O)C(=O)N[C@@H](Cc1c[nH]c2ccccc12)C(=O)N[C@@H](CC(C)C)C(=O)N[C@H](C(=O)N[C@@H](CCCNC(=N)N)C(=O)N[C@@H](CCC(N)=O)C(=O)N[C@@H](CCCNC(=N)N)C(=O)N[C@@H](Cc1ccc(O)cc1)C(N)=O)[C@@H](C)O)C(C)C [Compound 131, N{alpha-4}-(3-methylbutanoyl)-N{epsilon-7}-[2-(2-{2-[2-(2-{2-[(4S)-4-carboxy-4-(17-carboxyheptadecanamido)butanamido]ethoxy}ethoxy)acetamido]ethoxy}ethoxy)acetamido]-[4A,7K,8A,9E,18Q,22V,23E,28Y,30W,31L]hPYY (4-36)]
